Laboratory results as given in patent publication US8889744B2, “Bis-trifluoromethyl honokiol analogs and their use in treating cancers” (priority 2009, dated 2014).
Entries after “also recorded” stand apart in the source; their conditions may differ.

Experiments:
[1] = test system: primary human endothelial cells; settings: cited from earlier work
[2] = test system: angiosarcoma; settings: nude mice; cited from earlier work
[3] = test system: SVR cells; settings: in vitro; cited from earlier work
[4] = test system: A375 human melanoma cells; assay: Human melanoma xenograft A375 in nude mice; type: in vivo; settings: 120 mg/kg daily intraperitoneal, FIG. 4
Experimental: The compound was evaluated in conjunction with control, and with a different honokiol analogue, the bis-dichloroacetate. A375 human melanoma cells were injected into nude mice (3 mice pre treatment group) and received vehicle (intralipid) or 120 mg/kg honokiol bisdichloroacetate ester (honokiol DCA) or hexafluoro, via daily intraperitoneal administration. The volume of the tumors was calculated by the formula volume=(width squared times length) 0.52, where width is the shortest dimension.

[5] = test system: SVR angiosarcoma cells; assay: In vivo tumorigenesis, SVR tumor model in mice
Experimental: SVR (5×10^5) cells were injected into the flank of 6-week-old nude male mice obtained from Charles River Breeding Laboratories. When tumors became visible at approximately 1 week after inoculation, mice received 3 mg/day hexafluoro-honokiol, tacrolomis, or vehicle control suspended in 20% Intralipid (Baxter Healthcare, Deerfield, Ill.) in a total volume of 0.3 ml intraperitoneally. Tumor volume was measured using the formula (width^2×length)×0.52 where width represents the shortest dimension.
The efficacy of the hexafluoro-honokiol compound was then tested in an SVR tumor model in mice, and compared to that of a control and to Tacrolimis. The assay was performed according to the conditions in J Biol Chem. 2003 Sep. 12; 278(37):35501-7, the contents of which are hereby incorporated by reference.
Nude mice injected with 0.5 million SVR angiosarcoma cells were treated with hexafluoro-honokiol (120 mg/kg), Tacrolimis, or control (Cancer Res. 2009 Jun. 1; 69(11):4621-8), with a total of 4 mice in each group. […] The degree of inhibition with hexafluoro-honokiol was more marked than with the same dose of Tacrolimis.

[6] = test system: Rac-GTP (active Rac); assay: Rac activation pull-down assay (GST-PBD, Western blot); type: cell-based; settings: DAOY medulloblastoma cells, FIG. 1
Experimental: […] Cells were lysed with ice-cold lysis buffer, containing 25 mM HEPES pH 7.5, 150 mM NaCl, 1% NP-40, 10 mM MgCl2, 1 mM EDTA, 10% glycerol and protease inhibitors. A sample was kept for total Rac and Ras level analysis.
The remaining lysate was used for the pull-down (Western Blot) assay to isolate the GTP-loaded forms of Rac or Ras using the p21-binding domain of PAK1 fused to glutathione S-transferase (GST-PBD) (Glaven et al., J. Biol. Chem., 274, 2279-2285 (1999)). The GST-PBD fusion protein was prepared as previously described (Abassi, Y. and Vuori, K. EMBO J. 21, 4571-4582 (2002)).
Activated (GTP-bound) Rac was affinity-precipitated with p21-activated kinase-1 protein binding domain peptide, which binds only to Rac-GTP and not Rac-GDP. p21-Activated kinase-1 protein binding domain-agarose (7.5 μg/mg cell lysate) was added, and the reaction mixture was gently rocked at 4° C. for 60 min. The agarose beads were collected by pulsing for 5 s in a microcentrifuge at 14,000×g, and the beads were washed three times with 0.5 ml of lysis buffer.
The agarose beads were resuspended in 40 μl of 1×SDS sample buffer and boiled for 5 min. The supernatant was separated by SDS-PAGE on a 12% gel, and the proteins were transferred to nitrocellulose membrane. […] After incubation with the secondary antibody, Rac and Ras were detected by enhanced chemiluminescence.

[7] = test system: SVR cells; assay: SVR tumor volume, SVR cells grown in DMEM with 0.5% or 10% FBS; type: in vivo, mice; settings: FIG. 3
Experimental: FIG. 3 is a chart showing the effect of hexafluoro-honokiol on SVR tumor volume […] over time (days) in mice, as compared to control, where the SVR cells were grown in 0.5 and 10% serum Dulbecco's minimal essential media (DMEM).
Having shown that hexafluoro-honokiol appears to show better results than tacrolomis, a further experiment was conducted using SVR cells grown in Dulbecco's Modified Eagle Media (DMEM) supplemented with 0.5% or 10% fetal bovine serum (FBS), according to the techniques described in Bai, et al., J. Biol. Chem., Vol. 278, Issue 37, 35501-35507, Sep. 12, 2003.

Compound	inhibition of primary human endothelial cells compared with fibroblasts [1]	efficacy against angiosarcoma [2]	anti-proliferative activity against SVR cells [3]	efficacy of the two compounds compared with each other [4]	tumor volume versus control [4]	weight loss or other toxicities ([5]; 3 mg/day intraperitoneally in 20% Intralipid)	tumor volume versus control ([5]; 120 mg/kg (3 mg/day) intraperitoneally, FIG. 2)	degree of inhibition of tumor volume compared with Tacrolimis ([5]; same dose, FIG. 2)	levels of total Rac [6]	levels of Rac-GTP (active Rac) ([6]; with PDGF-BB)	tumor volume over time versus control [7]
honokiol	preferential inhibition	highly effective	potent anti-proliferative activity								
C=CCc1ccc(OC(=O)C(Cl)Cl)c(-c2ccc(OC(=O)C(Cl)Cl)c(CC=C)c2)c1 [honokiol bis-dichloroacetate, honokiol bisdichloroacetate ester, reference compound]				comparable efficacy	significantly better than control						
C=CCc1cc(C(c2ccc(O)c(CC=C)c2)(C(F)(F)F)C(F)(F)F)ccc1O [hexafluoro-honokiol, 2,2-bis(3-allyl-4-hydroxy-phenyl)-1,1,1,3,3,3-hexafluoropropane]				comparable efficacy	significantly better than control	No weight loss or other toxicities were observed	significantly different at all time points	more marked	not decreased	significantly decreased; also recorded: disappearance of RAC-GTP	significantly better than control
